Reference: US10214535B2, “Hydroxmethyl piperidine orexin receptor antagonists” (MERCK SHARP & DOHME CORP., priority 2014, dated 2019)
Like-named read-outs stand apart in the source and are kept apart here.

What was measured:
[1] = molecular target: human orexin-2 receptor (Homo sapiens (Human), UniProt O43614); experiment: hOX2R FLIPR Ca2+ flux assay; format: cell-based; conditions: CHO cells expressing the human orexin-2 receptor; agonist 70 pM Ala-6,12 orexin-A
Description: In a typical experiment the OX1 and OX2 receptor antagonistic activity of the compounds of the present invention was determined in accordance with the following experimental method. For intracellular calcium measurements, Chinese hamster ovary (CHO) cells expressing the rat orexin-1 receptor or the human orexin-2 receptor, are grown in Iscove's modified DMEM containing 2 mM L-glutamine, […], 1% hypoxanthine-thymidine supplement, 100 U/ml penicillin, 100 μg/ml streptomycin and 10% heat-inactivated fetal calf serum (FCS). The cells are seeded at 20,000 cells/well into Becton-Dickinson black 384-well clear bottom sterile plates coated with poly-D-lysine. All reagents were from GIBCO-Invitrogen Corp. The seeded plates are incubated overnight at 37° C. and 5% CO2. Ala-6,12 human orexin-A as the agonist is prepared as a 1 mM stock solution in 1% bovine serum albumin (BSA) and diluted in assay buffer (HBSS containing 20 mM HEPES, 0.1% BSA and 2.5 mM probenecid, pH7.4) for use in the assay at a final concentration of 70 pM. Test compounds are prepared as 10 mM stock solution in DMSO, then diluted in 384-well plates, first in DMSO, then assay buffer. On the day of the assay, cells are washed 3 times with 100 μl assay buffer and then incubated for 60 min (37° C., 5% CO2) in 60 μl assay buffer containing 1 μM Fluo-4AM ester, 0.02% pluronic acid, and 1% BSA. The dye loading solution is then aspirated and cells are washed 3 times with 100 μl assay buffer. 30 μl of that same buffer is left in each well. Within the Fluorescent Imaging Plate Reader (FLIPR, Molecular Devices), test compounds are added to the plate in a volume of 25 μl, incubated for 5 min and finally 25 μl of agonist is added. Fluorescence is measured for each well at 1 second intervals for 5 minutes and the height of each fluorescence peak is compared to the height of the fluorescence peak induced by 70 pM Ala-6,12 orexin-A with buffer in place of antagonist. For each antagonist, IC50 value (the concentration of compound needed to inhibit 50% of the agonist response) is determined. Alternatively, compound potency can be assessed by a radioligand binding assay (described in Bergman et. al. Bioorg. Med. Chem. Lett. 2008, 18, 1425-1430) in which the inhibition constant (Ki) is determined in membranes prepared from CHO cells expressing either the OX1 or OX2 receptor. The intrinsic orexin receptor antagonist activity of a compound which may be used in the present invention may be determined by these assays.

[2] = molecular target: hOX1R (Homo sapiens, UniProt O43613); experiment: hOX1R FLIPR Ca2+ flux assay; format: cell-based
[3] = CHO cells expressing orexin-1 receptor, agonist 70 pM Ala-6,12 orexin-A, read-out: hOX1R FLIPR IC50

human orexin-2 receptor, sequence (O43614 whole entry): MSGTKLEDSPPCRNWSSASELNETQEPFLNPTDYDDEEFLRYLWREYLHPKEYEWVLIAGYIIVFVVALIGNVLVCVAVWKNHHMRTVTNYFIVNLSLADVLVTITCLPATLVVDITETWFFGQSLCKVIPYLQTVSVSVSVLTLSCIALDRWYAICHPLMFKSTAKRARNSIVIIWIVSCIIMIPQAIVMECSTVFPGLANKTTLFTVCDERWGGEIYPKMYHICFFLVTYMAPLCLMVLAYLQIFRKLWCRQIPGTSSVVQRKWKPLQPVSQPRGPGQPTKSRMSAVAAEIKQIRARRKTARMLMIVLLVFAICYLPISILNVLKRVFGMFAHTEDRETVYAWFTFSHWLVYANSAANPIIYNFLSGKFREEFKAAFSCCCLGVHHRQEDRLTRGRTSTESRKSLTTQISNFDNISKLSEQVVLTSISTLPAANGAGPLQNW

| SMILES | IC50 [1] | IC50 [2, 3] | IC50 [2] |
| --- | --- | --- | --- |
| COC(=O)c1c(OC)cccc1O[C@@H]1CC[C@@H](CO)N(C(=O)c2ccccc2-n2nccn2)C1 [Example 1, Methyl 2-{[(3R,6S)-6-(hydroxymethyl)-1-{[2-(2H-1,2,3-triazol-2-yl)phenyl]carbonyl}-piperidin-3-yl]oxy}-6-methoxybenzoate] | 0.198 µM | > 10 µM | – |
| CC1(C)OC(=O)c2c1ccnc2O[C@@H]1CC[C@@H](CO)N(C(=O)c2ccccc2-n2nccn2)C1 [Example 2, 4-{[(3R,6S)-6-(Hydroxymethyl)-1-{[2-(2H-1,2,3-triazol-2-yl)phenyl]carbonyl}piperidin-3-yl]oxy}-1,1-dimethylfuro[3,4-c]pyridin-3(1H)-one] | 0.021 µM | > 10 µM | – |
| N#Cc1ccnc(O[C@@H]2CC[C@@H](CO)N(C(=O)c3ccccc3-n3nccn3)C2)c1 [Example 3, 2-{[(3R,6S)-6-(hydroxymethyl)-1-{[2-(2H-1,2,3-triazol-2-yl)phenyl]carbonyl}piperidin-3-yl]oxy}pyridine-4-carbonitrile] | 0.017 µM | > 10 µM | – |
| COC(=O)c1c(C#N)cccc1O[C@@H]1CC[C@@H](CO)N(C(=O)c2ccccc2-n2nccn2)C1 [Example 4, methyl 2-cyano-6-{[(3R,6S)-6-(hydroxymethyl)-1-{[2-(2H-1,2,3-triazol-2-yl)phenyl]carbonyl}piperidin-3-yl]oxy} benzoate] | 0.049 µM | > 10 µM | – |
| Cc1ccnc(O[C@@H]2CC[C@@H](CO)N(C(=O)c3ccccc3-n3nccn3)C2)c1 [Example 5, [(2S,5R)-5-[(4-methylpyridin-2-yl)oxy]-1-{[2-(2H-1,2,3-triazol-2-yl)phenyl]carbonyl}piperidin-2-yl]methanol] | 0.018 µM | 1.71 µM | – |
| O=C(c1ccccc1-n1nccn1)N1C[C@H](Oc2cc(OCC(F)F)ccn2)CC[C@H]1CO [Example 6, [(2S,5R)-5-{[4-(2,2-difluoroethoxy)pyridin-2-yl]oxy}-1-{[2-(2H-1,2,3-triazol-2-yl)phenyl]carbonyl}piperidin-2-yl]methanol] | 0.06 µM | – | > 10 µM |
| Cc1c(C#N)ccnc1O[C@@H]1CC[C@@H](CO)N(C(=O)c2ccccc2-n2nccn2)C1 [Example 7, 2-{[(3R,6S)-6-(hydroxymethyl)-1-{[2-(2H-1,2,3-triazol-2-yl)phenyl]carbonyl}piperidin-3-yl]oxy}-3-methylpyridine-4-carbonitrile] | 0.008 µM | 1.78 µM | – |
| CCOc1ccccc1C(=O)N1C[C@H](Oc2nccc(C#N)c2OC)CC[C@H]1CO [Example 10, 2-{[(3R,6S)-1-[(2-Ethoxyphenyl)carbonyl]-6-(hydroxymethyl)piperidin-3-yl]oxy}-3-methoxypyridine-4-carbonitrile] | 0.012 µM | > 10 µM | – |
| COc1c(C#N)ccnc1O[C@@H]1CC[C@@H](CO)N(C(=O)c2cccnc2OCC(F)(F)F)C1 [Example 11, 2-{[(3R,6S)-6-(hydroxymethyl)-1-{[2-(2,2,2-trifluoroethoxy)pyridin-3-yl]carbonyl}piperidin-3-yl]oxy}-3-methoxypyridine-4-carbonitrile] | 0.009 µM | 4.08 µM | – |
| COc1c(C#N)ccnc1O[C@@H]1CC[C@@H](CO)N(C(=O)c2cccnc2OC(C)C)C1 [Example 12, 2-{[(3R,6S)-6-(hydroxymethyl)-1-{[2-(1-methylethoxy)pyridin-3-yl]carbonyl}piperidin-3-yl]oxy}-3-methoxypyridine-4-carbonitrile] | 0.027 µM | > 10 µM | – |
| COc1c(C#N)ccnc1O[C@@H]1CC[C@@H](CO)N(C(=O)c2ccccc2OC(F)F)C1 [Example 13, 2-{[(3R,6S)-1-{[2-(difluoromethoxy)phenyl]carbonyl}-6-(hydroxymethyl)piperidin-3-yl]oxy}-3-methoxypyridine-4-carbonitrile] | 0.039 µM | > 10 µM | – |
| COc1c(C#N)ccnc1O[C@@H]1CC[C@@H](CO)N(C(=O)c2ccccc2OC(F)(F)F)C1 [Example 14, 2-{[(3R,6S)-(hydroxymethyl)-1-{[2-(trifluoromethoxy)phenyl]carbonyl}piperidin-3-yl]oxy}-3-methoxypyridine-4-carbonitrile] | 0.014 µM | > 10 µM | – |
| CC(C)(O)[C@@H]1CC[C@@H](Oc2cc(C#N)ccn2)CN1C(=O)c1ccccc1-n1nccn1 [Example 15, 2-{[(3R,6S)-6-(1-Hydroxy-1-methylethyl)-1-{[2-(2H-1,2,3-triazol-2-yl)phenyl]carbonyl}-piperidin-3-yl]oxy}pyridine-4-carbonitrile] | 0.031 µM | > 10 µM | – |
| Cc1c(C#N)ccnc1O[C@@H]1CC[C@@H](C(C)(C)O)N(C(=O)c2ccccc2-n2nccn2)C1 [Example 16, 2-{[(3R,6S)-6-(1-hydrox-1-methylethyl)-1-{[2-(2H-1,2,3-triazol-2-yl)phenyl]carbonyl}piperidin-3-yl]oxy}-3-methylpyridine-4-carbonitrile] | 0.027 µM | 1.33 µM | – |
